Literature values, collected in patent US7973084B2, “Molecular transporters based on alditol or inositol and processes for the preparation thereof” (Postech Academy-Industrial Foundation, priority 2005, dated 2011).

System: Jurkat cells

## D-arginine nonamer
Determined using FACS
  uptake by Jurkat cells: much more effective

## L-arginine nonamer
Compared with Tat protein (49-57 a.a.)
  effectiveness in the transportation across a biological membrane relative to Tat protein (49-57 a.a.): 20 times
